Species on record: Rattus norvegicus
Test: Open TG-GATES - Regimen: Daily Repeat
Type: toxicity, organism-based, Sprague-Dawley
Design: regimen Daily Repeat, gender Male, age 6 weeks
Conditions: in vivo, po, 0 mg/kg, route gavage, dose level Control; for APTT / Bas / Eos / Fbg / Hb / Ht / Lym / MCH / MCHC / MCV / Mono / Neu / PT / Plat / RBC / Ret / WBC: tissue Blood; for ALP / ALT / AST / BUN / CRE / DBIL / GLC / IP / K / Na / PL / RALB / TBIL / TC / TG / TP / gamma-GTP: tissue Plasma

## NS(=O)(=O)c1cc(C(=O)O)c(NCc2ccco2)cc1Cl [FUROSEMIDE]
72 h, time 3 day
  TERMINAL_BW: 240.2 g
  APTT: 15.8 s
  Bas: 0.2%
  Eos: 1%
  Fbg: 306 mg/dL
  Hb: 13.5 g/dL
  Ht: 40.3%
  Lym: 73.8%
  MCH: 21.5 pg
  MCHC: 33.6%
  MCV: 64.1 fL
  Mono: 3.2%
  Neu: 21.2%
  PT: 14.8 s
  Plat: 114.8 x10_4/uL
  RBC: 629.2 x10_4/ul
  Ret: 6.5%
  WBC: 92.7 x10_2/uL
  ALP: 1396.2 IU/L
  ALT: 42 IU/L
  AST: 66.2 IU/L
  BUN: 14.4 mg/dL
  CRE: 0.2 mg/dL
  DBIL: 0.016 mg/dL
  GLC: 180.2 mg/dL
  IP: 7.7 mg/dL
  K: 3.8 meq/L
  Na: 142.6 meq/L
  PL: 182 mg/dL
  RALB: 2.7 g/dL
  TBIL: 0.056 mg/dL
  TC: 91 mg/dL
  TG: 130 mg/dL
  TP: 5.8 g/dL
  gamma-GTP: 0.4 IU/L
[…], time 7 day
  TERMINAL_BW: 280.2 g
  APTT: 17.8 s
  Bas: 0.6%
  Eos: 1%
  Fbg: 294.2 mg/dL
  Hb: 13.7 g/dL
  Ht: 39.9%
  Lym: 80.2%
  MCH: 21.2 pg
  MCHC: 34.5%
  MCV: 61.5 fL
  Mono: 2.6%
  Neu: 14.8%
  PT: 15.5 s
  Plat: 125.8 x10_4/uL
  RBC: 648.6 x10_4/ul
  Ret: 5.2%
  WBC: 100.8 x10_2/uL
  ALP: 1277.2 IU/L
  ALT: 38.2 IU/L
  AST: 61.4 IU/L
  BUN: 15.6 mg/dL
  CRE: 0.2 mg/dL
  DBIL: 0.018 mg/dL
  GLC: 179.4 mg/dL
  IP: 7.8 mg/dL
  K: 4 meq/L
  Na: 142.6 meq/L
  PL: 168 mg/dL
  RALB: 2.7 g/dL
  TBIL: 0.05 mg/dL
  TC: 85.6 mg/dL
  TG: 119.8 mg/dL
  TP: 5.9 g/dL
  gamma-GTP: 0.8 IU/L
[…], time 14 day
  TERMINAL_BW: 327.8 g
  APTT: 19.3 s
  Bas: 0.4%
  Eos: 1%
  Fbg: 289.4 mg/dL
  Hb: 15 g/dL
  Ht: 43.1%
  Lym: 81%
  MCH: 21 pg
  MCHC: 34.7%
  MCV: 60.4 fL
  Mono: 2.8%
  Neu: 14.2%
  PT: 15.3 s
  Plat: 117.3 x10_4/uL
  RBC: 713.8 x10_4/ul
  Ret: 4.2%
  WBC: 117.4 x10_2/uL
  ALP: 1456.8 IU/L
  ALT: 43.4 IU/L
  AST: 64.6 IU/L
  BUN: 15.2 mg/dL
  CRE: 0.2 mg/dL
  DBIL: 0.014 mg/dL
  GLC: 177.8 mg/dL
  IP: 7.4 mg/dL
  K: 4.1 meq/L
  Na: 143.6 meq/L
  PL: 160.6 mg/dL
  RALB: 2.8 g/dL
  TBIL: 0.046 mg/dL
  TC: 69.8 mg/dL
  TG: 157.2 mg/dL
  TP: 6.1 g/dL
  gamma-GTP: 0.6 IU/L
[…], time 28 day
  TERMINAL_BW: 406.3 g
  APTT: 17.8 s
  Bas: 0.6%
  Eos: 1.2%
  Fbg: 266.6 mg/dL
  Hb: 15.1 g/dL
  Ht: 44.6%
  Lym: 82.2%
  MCH: 19.1 pg
  MCHC: 33.7%
  MCV: 56.7 fL
  Mono: 2.2%
  Neu: 13.4%
  PT: 16.4 s
  Plat: 100.7 x10_4/uL
  RBC: 787.6 x10_4/ul
  Ret: 1.8%
  WBC: 98.8 x10_2/uL
  ALP: 1033.8 IU/L
  ALT: 36.4 IU/L
  AST: 64.6 IU/L
  BUN: 14.4 mg/dL
  CRE: 0.2 mg/dL
  DBIL: 0.016 mg/dL
  GLC: 183.4 mg/dL
  IP: 6.3 mg/dL
  K: 3.9 meq/L
  Na: 143.8 meq/L
  PL: 137.2 mg/dL
  RALB: 2.8 g/dL
  TBIL: 0.048 mg/dL
  TC: 64.8 mg/dL
  TG: 116.6 mg/dL
  TP: 6.2 g/dL
  gamma-GTP: 0.4 IU/L

Source: ChEMBL document CHEMBL3885861, “Open TG-GATES”
